*1 amine or outer side, *2 acyl side, *3 side chain or, on linkers, in order; H or OH if unused. Where no end group is shown, it is not given here. Cysteamide = C(CS[*:3])N[*:1]
Key:
[1] = system: HS-68 and NIH 3T3 cell lines; test: Peptide delivery by vector peptides (fluorescently labeled peptide B / peptide A); format: cell-based; conditions: transfection of fluorescently labeled peptide; one micromolar vector peptide; 1 h
Procedure: (§1) We evaluated the ability of peptides designed according to principles described herein, as well as variants thereof, to deliver peptides and proteins into HS-68 and NIH 3T3 cell lines. Peptide delivery was performed with a 32 mer peptide (peptide B), and in some cases a […] peptide (peptide A). The peptides were fluorescently labeled. Peptides (5.0×10^−8M or 5.0×10^−7M) were incubated with one micromolar vector peptide in cell culture medium in the absence of serum for 30 min. Cultured cells (0.5 to 1.0×10^6) were then overlaid with the preformed peptide/vector peptide complexes in 500 μL DMEM for one hour in the presence or absence of FCS. Complexes were formed prior to addition of FCS to avoid interactions between ep-vector and serum proteins. Following this transfection step, fresh DMEM supplemented with serum was added for another hour. Then cells were extensively washed, fixed and analyzed by fluorescence microscopy.
(§2) The results of the experiments testing the transfection properties of the peptides are presented as a table in which the sequences are aligned for optimal comparison: […]

[2] = system: HS-68 and NIH 3T3 cell lines; test: Protein delivery by vector peptides (GFP); format: cell-based; conditions: transfection of GFP; incubated with peptide at a molar ratio of 1:20; 1 h
Procedure: as §1
To investigate protein delivery we tested the delivery into cells of the fluorescent protein GFP. The protein was incubated with peptide at a molar ratio of 1:20, followed by overlay of the complex onto cultured cells. This was followed by incubation for 1 h. Then cells were extensively washed and fixed with formalin before observation.
as §2

[3] = system: HS-68 and NIH 3T3 cell lines; test: Drug delivery by vector peptides (ANS and Bis-ANS); format: cell-based; conditions: transfection of ANS and Bis-ANS; incubated with peptide at a molar ratio of 1:20; 1 h
Procedure: For investigation of drug delivery, we used the naphthalene derivatives ANS and Bis-ANS, which have intrinsic fluorescence. The drugs was incubated with peptide at a molar ratio of 1:20, followed by overlay of the complex onto cultured cells. This was followed by incubation for 1 h. Then cells were extensively washed and observed by microscopy.
as §2

[4] = system: human fibroblasts (HS-68); test: Cellular localization of rhodamine-labeled ODN-peptide conjugate; format: cell-based
Procedure: The first ODN has the sequence d(GGTCTTACTCTCCGTCTCT) (SEQ ID NO:30). It was modified in 5′ by a hexamethylene-bridged pyridyldisulfide and in 3′ by a 2-propanol-3-amino group and labeled with rhodamine. Conjugation was performed by stirring a solution of the oligonucleotide with a three fold excess of peptide for 3 h. […] The target compartment of the conjugate remains to be identified.

[5] = system: mammalian fibroblasts, NIH 3T3 fibroblasts or murine L1210 lymphocytes; test: Cellular localization of lucifer yellow-linked peptides; format: cell-based; conditions: 3 min incubation at 10 μM
[6] = system: Acheloplasma laidlawii and Spiroplasma melliferum; conditions: concentrations much lower than minimal inhibitory concentrations; cited from earlier work
[7] = phosphatidylcholine or phosphatidylserine monolayers; cited from earlier work

| Substance | Pep [1] | Pro [2] | Drug [3] | also measured |
| --- | --- | --- | --- | --- |
| KETWWETWWETWSQKKKRKV [Pep-2.9-cya] | 5% |  |  |  |
| KETWWETWWTEWSQPKKRKV [Pep-2.1-cya] | 80% | 70% | 20% |  |
| Lys Trp Trp Glu Thr Trp Trp Glu Thr Trp Ser Gln Pro Lys Lys Lys Arg Lys Val (Ac-KWWETWWETWSQPKKKRKV-Cysteamide) [Pep-2.5-cya] | 50-60% | 5% | 5% |  |
| d(GGTCTTACTCTCCGTCTCT) (DNA, backbone not given here; 5' hexamethylene pyridyldisulfide, 3' 2-propanol-3-amino, rhodamine label, peptide conjugated) [first ODN] |  |  |  | cellular localization of the conjugate ([4]; ODN conjugated to peptide, 5 min incubation): clearly cytoplasmic but not nuclear; cellular internalization of the free oligonucleotide ([4]; free, not conjugated): no spontaneous cellular internalization could be detected |
| Tyr Gly Phe Lys Lys Arg Arg Gln Pro Thr Trp Trp Glu Thr Trp Trp Thr Glu (Ac-YGFKKRRQPTWWETWWTE-Cysteamide) [Pep-1.1-cya] | 80% | 60% | 5% |  |
| Tyr Gly Phe Lys Lys Arg Arg Gln Thr Trp Trp Glu Thr Trp Trp Thr Glu (Ac-YGFKKRRQTWWETWWTE-Cysteamide) [Pep-1.2-cya] | 80% | 80-90% | 5% |  |
| Lys Glu Thr Trp Trp Glu Thr Trp Thr Trp Ser Gln Pro Lys Lys Lys Arg Lys Val (Ac-KETWWETWTWSQPKKKRKV-Cysteamide) [Pep-2.4-cya] | 60% | 20-30% | 5% |  |
| GALFLGWLGAAGSTMGAWSQPKKKRKV (Ac-GALFLGWLGAAGSTMGAWSQPKKKRKV; not fully specified (C-terminus); printed as GALFLGWLGAAGSTMGAWSQPKKKRKV) [[3]] |  |  |  | final localization of lucifer yellow-linked peptide [5]: both localizations, membrane associate and nuclear |
| Tyr Gly Phe Lys Lys Phe Arg Lys Pro Trp Thr Trp Trp Glu Thr Trp Trp Thr Glu (Ac-YGFKKFRKPWTWWETWWTE-Cysteamide; SMILES CC(=O)N[C@@H](Cc1ccc(O)cc1)C(=O)NCC(=O)N[C@@H](Cc1ccccc1)C(=O)N[C@@H](CCCCN)C(=O)N[C@@H](CCCCN)C(=O)N[C@@H](Cc1ccccc1)C(=O)N[C@@H](CCCNC(=N)N)C(=O)N[C@@H](CCCCN)C(=O)N1CCC[C@H]1C(=O)N[C@@H](Cc1c[nH]c2ccccc12)C(=O)N[C@H](C(=O)N[C@@H](Cc1c[nH]c2ccccc12)C(=O)N[C@@H](Cc1c[nH]c2ccccc12)C(=O)N[C@@H](CCC(=O)O)C(=O)N[C@H](C(=O)N[C@@H](Cc1c[nH]c2ccccc12)C(=O)N[C@@H](Cc1c[nH]c2ccccc12)C(=O)N[C@H](C(=O)N[C@@H](CCC(=O)O)C(=O)NCCS)[C@@H](C)O)[C@@H](C)O)[C@@H](C)O) [Pep-3-cya] | 50% | 5% | 50-70% |  |
| GALFLGWLGAAGSTMGARKKKRKV (Ac-GALFLGWLGAAGSTMGARKKKRKV; not fully specified (C-terminus); printed as GALFLGWLGAAGSTMGARKKKRKV) [[4]] |  |  |  | final localization of lucifer yellow-linked peptide [5]: remains membrane associated |
| Lys Thr Trp Trp Glu Thr Trp Trp Glu Thr Ala Ser Gln Pro Lys Lys Arg Lys Val (Ac-KTWWETWWETASQPKKRKV-Cysteamide; SMILES CC(=O)N[C@@H](CCCCN)C(=O)N[C@H](C(=O)N[C@@H](Cc1c[nH]c2ccccc12)C(=O)N[C@@H](Cc1c[nH]c2ccccc12)C(=O)N[C@@H](CCC(=O)O)C(=O)N[C@H](C(=O)N[C@@H](Cc1c[nH]c2ccccc12)C(=O)N[C@@H](Cc1c[nH]c2ccccc12)C(=O)N[C@@H](CCC(=O)O)C(=O)N[C@H](C(=O)N[C@@H](C)C(=O)N[C@@H](CO)C(=O)N[C@@H](CCC(N)=O)C(=O)N1CCC[C@H]1C(=O)N[C@@H](CCCCN)C(=O)N[C@@H](CCCCN)C(=O)N[C@@H](CCCNC(=N)N)C(=O)N[C@@H](CCCCN)C(=O)N[C@H](C(=O)NCCS)C(C)C)[C@@H](C)O)[C@@H](C)O)[C@@H](C)O) [Pep-4.1-cya] | Aggr. | Aggr. | Aggr. |  |
| Lys Lys Lys Arg Lys Val Lys Glu Thr Trp Trp Glu Thr Trp Trp Glu Thr Val (Ac-KKKRKVKETWWETWWETV-Cysteamide; SMILES CC(=O)N[C@@H](CCCCN)C(=O)N[C@@H](CCCCN)C(=O)N[C@@H](CCCCN)C(=O)N[C@@H](CCCNC(=N)N)C(=O)N[C@@H](CCCCN)C(=O)N[C@H](C(=O)N[C@@H](CCCCN)C(=O)N[C@@H](CCC(=O)O)C(=O)N[C@H](C(=O)N[C@@H](Cc1c[nH]c2ccccc12)C(=O)N[C@@H](Cc1c[nH]c2ccccc12)C(=O)N[C@@H](CCC(=O)O)C(=O)N[C@H](C(=O)N[C@@H](Cc1c[nH]c2ccccc12)C(=O)N[C@@H](Cc1c[nH]c2ccccc12)C(=O)N[C@@H](CCC(=O)O)C(=O)N[C@H](C(=O)N[C@H](C(=O)NCCS)C(C)C)[C@@H](C)O)[C@@H](C)O)[C@@H](C)O)C(C)C) [Pep-2.6-cya] | 30% | 20% |  |  |
| Lys Lys Lys Arg Lys Val Lys Pro Glu Thr Trp Trp Glu Thr Trp Trp Glu Thr Val (Ac-KKKRKVKPETWWETWWETV-Cysteamide) [Pep-2.7-cya] | 20-30% | 10-20% |  |  |
| MGLGLHLLVLAAALQGAWSQPKKKRKV (Ac-MGLGLHLLVLAAALQGAWSQPKKKRKV; not fully specified (C-terminus); printed as MGLGLHLLVLAAALQGAWSQPKKKRKV) [[1]] |  |  |  | final localization of lucifer yellow-linked peptide [5]: localize in the nuclei of the cells; effect on membrane potential and transmembrane pH gradient [6]: decrease; surface pressure increase [7]: ~15 mN/m |
| Lys Glu Thr Trp Trp Glu Thr Trp Trp Thr Glu Ala Ser Gln Pro Lys Lys Arg Lys Val (Ac-KETWWETWWTEASQPKKRKV-Cysteamide) [Pep-2.2-cya] |  | 30% | 5% |  |
| Lys Glu Thr Trp Trp Glu Thr Trp Trp Glu Thr Trp Ser Gln Pro Lys Lys Lys Arg Lys Val (Ac-KETWWETWWETWSQPKKKRKV-Cysteamide) [Pep-2.3-cya] | 60-70% | 50-70% | 30% |  |
| Lys Glu Thr Trp Trp Glu Thr Trp Trp Thr Glu Trp Ser Gln Pro Lys Lys Lys Arg Lys Val (Ac-KETWWETWWTEWSQPKKKRKV-Cysteamide) [Pep-2-cya] |  |  | 20% |  |
| KTWWETWWETWSQPKKRKV [Pep-4.2-cya] | Aggr. | Aggr. | Aggr. |  |
